Measurements reported in patent publication US12427212B2, “Nectin-4 binding miniproteins, conjugates and uses thereof” (Aktis Oncology, Inc., priority 2023, dated 2025).
Bridges are numbered along the chain shown (N, C = ends). [ ]: non-standard residue; d: D form. The star is where a group is joined. DOTA = O=C(O)CN1CCN(CC(=O)O)CCN(CC(=O)*)CCN(CC(=O)O)CC1; Arg(Me2s) = CN=C(NC)NCCC[C@H](N)C(=O)O; PEG4 = NCCOCCOCCOCCOCCC(=O)O

Assays:
[1] = In vivo biodistribution of 111In-labeled miniproteins by SPECT/CT, HT-1376 xenograft; design: species or system mouse; details: female, athymic nude, mouse, in vivo
Text: HT-1376 is a human cell line that expresses Nectin-4.
Humane endpoints: All animals were euthanized following the final imaging time point and carcasses were discarded according to IACUC protocols.
Image Processing: Images were generated as SPECT/CT pairs with the SPECT reported in units of activity.
Image generation: After the preprocessing described in A, individual maximum intensity projections (MIPs) were created with VivoQuant software for each subject at each time point and scaled in percent injected dose per gram (% ID/g). The CT for each image was windowed from −500 to 4500 Hounsfield Units (HU). The SPECT was windowed at various ranges to highlight different regions of uptake. Images were then stitched together using Image Magick based python tools to create montages of subjects over time and time points over groups.

Nectin-4 = biological target: T1, Nectin-4 (Homo sapiens, UniProt Q96NY8); assay: DELFIA whole cell binding assay, equilibrium binding affinity (KD), Table 2B; details: Table 2B, binding to Nectin-4; read-out: Binding Affinity (KD)
T1 sequence (Q96NY8 32-510): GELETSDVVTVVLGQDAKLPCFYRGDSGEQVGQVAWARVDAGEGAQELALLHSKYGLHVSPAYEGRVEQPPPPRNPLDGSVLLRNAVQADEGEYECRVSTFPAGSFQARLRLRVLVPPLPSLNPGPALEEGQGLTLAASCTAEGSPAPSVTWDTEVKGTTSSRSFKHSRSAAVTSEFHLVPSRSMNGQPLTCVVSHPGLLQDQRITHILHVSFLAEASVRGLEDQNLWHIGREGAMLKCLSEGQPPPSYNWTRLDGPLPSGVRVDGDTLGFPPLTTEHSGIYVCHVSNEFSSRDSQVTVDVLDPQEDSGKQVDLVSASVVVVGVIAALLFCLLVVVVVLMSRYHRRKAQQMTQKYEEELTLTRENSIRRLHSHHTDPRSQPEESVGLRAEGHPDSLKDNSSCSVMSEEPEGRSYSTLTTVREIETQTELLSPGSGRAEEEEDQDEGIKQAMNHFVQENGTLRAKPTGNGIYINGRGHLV
Description: A whole cell binding assay was used to estimate the equilibrium binding affinity (KD) or binding inhibition constant (Ki) of miniprotein ligands to cells expressing a target of interest. Cells were dispensed into a 384-well plate and incubated at 37° C., in 5% CO2 overnight. The next day cells were gently washed once in assay buffer prior to addition of europium chelated ligand. For KD determination, a miniprotein conjugated with europium chelate (DOTA or DTPA) in the presence or absence of 100-fold excess un-conjugated ligand was incubated with cells over 12 different concentrations ranging from 100 times below and above expected KD values. For Ki determination, a single concentration (KD equivalent concentration) of europium-chelate miniprotein was added to each well followed immediately by the addition of unconjugated competing ligand over 12 different concentrations ranging from 100 times below and above expected Ki values as before. The plate was incubated for 1.5 h at room temperature to reach binding equilibrium. Cells were then washed three times at room temperature with 1×PBS followed by the addition of 2 M HCl and incubated for two h at 37° C. Following this step, 2 M NaOH and fluorescent inducer solution were added to each well and incubated for 30 minutes at room temperature according to the manufacturer's protocol (Perkin-ELMER DELFIA assay). Plates were read on an Envision plate reader and a curve-fitting model was applied to estimate KD and Ki values using GraphPad Prism software. Mean DELFIA K; values for exemplary miniproteins are recorded in TABLE 9A.

[2] = In vitro metabolic stability in serum/plasma (percent parent remaining, LC-MS); format: in vitro ADME; details: mouse
Description: Exemplary miniproteins were spiked into biological matrices at initial concentration between 1-2 μM. Tested matrices were varied by species (mouse, rat, human) and type (plasma, serum, and kidney brush border membrane (kBBM) preparations tested each from 0.625-100 μg/mL protein content). Tested conditions were incubated with miniproteins at 37° C. for 4 h. At collection points of 0, 15, 30, 60, 120, 240 minutes, 50 μL of each condition were quenched by organic solvent (methanol or acetonitrile) or the addition of 4% phosphoric acid solution followed by solid-phase extraction. Fractions of each quenched timepoint were subsequently assayed for parent miniproteins concentration by high resolution LC-MS. Percent-parent-remaining-time plots were constructed from the ratio of each given time collection to the time-zero parent miniprotein. Percent-parent-remaining in mouse serum and plasma for exemplary miniproteins are recorded in TABLE 11.

| Compound | tissue uptake at 4 h [1] | tissue uptake at 24 h [1] | Kd (Nectin-4) | half-life [2] | half-life ([2]; plasma) |
| --- | --- | --- | --- | --- | --- |
| CC[C@H](C)[C@@H]1NC(=O)CNC(=O)[C@@H]2CCCN2C(=O)[C@H](CC(C)C)NC(=O)[C@H](Cc2ccc(O)cc2)NC(=O)[C@H](CC(N)=O)NC(=O)[C@H](Cc2ccccc2)NC(=O)[C@H](C)NC(=O)[C@H](CCC(N)=O)NC(=O)[C@H](CCC(N)=O)NC(=O)[C@H]([C@@H](C)CC)NC(=O)[C@H](Cc2ccc(O)cc2)NC(=O)[C@H](Cc2ccc(O)cc2)NC(=O)[C@@H]2CSSC[C@@H](C(=O)O)NC(=O)CNC(=O)[C@H](CC(C)C)NC(=O)[C@H](CC(N)=O)NC(=O)[C@H](CC(=O)O)NC(=O)[C@H](CC(C)C)NC(=O)[C@H]([C@@H](C)CC)NC(=O)[C@H](CCC(=O)O)NC(=O)[C@H](CCC(=O)O)NC(=O)[C@H]([C@@H](C)CC)NC(=O)[C@H](CSSC[C@H](NC(C)=O)C(=O)N[C@@H](CCC(=O)O)C(=O)N[C@@H](Cc3ccc(O)cc3)C(=O)N[C@@H](CC(=O)O)C(=O)N[C@@H](CCC(=O)O)C(=O)N[C@@H](CCC(=O)O)C(=O)N[C@@H](Cc3ccccc3)C(=O)N[C@@H](Cc3ccccc3)C(=O)N[C@@H]([C@@H](C)O)C(=O)N[C@@H](C)C(=O)N[C@@H](CC(C)C)C(=O)N[C@@H](CCCCN)C(=O)N[C@@H](CCCCN)C(=O)N[C@@H](CC(C)C)C(=O)N[C@@H](CCCNC(=N)N)C(=O)NCC(=O)NCC(=O)N[C@@H](CC(=O)O)C(=O)N[C@@H]([C@@H](C)CC)C(=O)N2)NC1=O [Compound C104] | 69.6 %ID/g | 40.6 %ID/g | 3.7 nM | – | – |
| CC[C@H](C)[C@@H]1NC(=O)[C@H](Cc2ccc(O)cc2)NC(=O)[C@H](CC(=O)O)NC(=O)[C@@H]2CSSC[C@@H](C(=O)N[C@@H](CO)C(=O)O)NC(=O)CNC(=O)[C@H](CC(C)C)NC(=O)[C@H](CC(N)=O)NC(=O)[C@H](CC(=O)O)NC(=O)[C@H](CC(C)C)NC(=O)[C@H]([C@@H](C)CC)NC(=O)[C@H](CCC(=O)O)NC(=O)[C@H](CCC(=O)O)NC(=O)[C@H]([C@@H](C)CC)NC(=O)[C@H](CSSC[C@H](NC(=O)CCOCCOCCOCCOCCNC(=O)CN3CCN(CC(=O)O)CCN(CC(=O)O)CCN(CC(=O)O)CC3)C(=O)N[C@@H](CCC(=O)O)C(=O)N[C@@H](Cc3ccc(O)cc3)C(=O)N[C@@H](CC(=O)O)C(=O)N[C@@H](CCC(=O)O)C(=O)N[C@@H](CCC(N)=O)C(=O)N[C@@H](Cc3ccccc3)C(=O)N[C@@H](Cc3ccccc3)C(=O)N[C@@H]([C@@H](C)O)C(=O)N[C@@H](C)C(=O)N[C@@H](CC(C)C)C(=O)N[C@@H](CCCCN)C(=O)N[C@@H](CCCNC(=N)N)C(=O)N[C@@H](CC(C)C)C(=O)N[C@@H](CCCNC(=N)N)C(=O)NCC(=O)N[C@@H](CC(=O)O)C(=O)N[C@@H](CC(=O)O)C(=O)N[C@@H]([C@@H](C)CC)C(=O)N2)NC(=O)[C@H](CC(C)C)NC(=O)CNC(=O)[C@@H]2CCCN2C(=O)[C@H](CC(C)C)NC(=O)[C@H](Cc2ccc(O)cc2)NC(=O)[C@H](CCC(N)=O)NC(=O)[C@H](Cc2ccccc2)NC(=O)[C@H](CO)NC(=O)[C@H](C)NC(=O)[C@H](CCC(N)=O)NC1=O [Compound C236] | 65.1 %ID/g | 42.1 %ID/g | – | > 12 h | > 12 h |
| CC[C@H](C)[C@@H]1NC(=O)[C@H](Cc2ccc(O)cc2)NC(=O)[C@H](CCC(=O)O)NC(=O)[C@@H]2CSSC[C@@H](C(=O)N[C@@H](CO)C(=O)O)NC(=O)CNC(=O)[C@H](CC(C)C)NC(=O)[C@H](CC(N)=O)NC(=O)[C@H](CC(=O)O)NC(=O)[C@H](CC(C)C)NC(=O)[C@H]([C@@H](C)CC)NC(=O)[C@H](CCC(=O)O)NC(=O)[C@H](CCC(=O)O)NC(=O)[C@H]([C@@H](C)CC)NC(=O)[C@H](CSSC[C@H](NC(=O)CCOCCOCCOCCOCCNC(=O)CN3CCN(CC(=O)O)CCN(CC(=O)O)CCN(CC(=O)O)CC3)C(=O)N[C@@H](CC(=O)O)C(=O)N[C@@H](Cc3ccc(O)cc3)C(=O)N[C@@H](CC(=O)O)C(=O)N[C@@H](CCC(=O)O)C(=O)N[C@@H](CCC(N)=O)C(=O)N[C@@H](Cc3ccccc3)C(=O)N[C@@H](Cc3ccccc3)C(=O)N[C@@H]([C@@H](C)O)C(=O)N[C@@H](C)C(=O)N[C@@H](CC(C)C)C(=O)N[C@@H](CCCCN)C(=O)N[C@@H](CCCNC(=N)N)C(=O)N[C@@H](CC(C)C)C(=O)N[C@@H](CCCNC(=N)N)C(=O)NCC(=O)NCC(=O)N[C@@H](CC(=O)O)C(=O)N[C@@H]([C@@H](C)CC)C(=O)N2)NC(=O)[C@H](CC(C)C)NC(=O)CNC(=O)[C@@H]2CCCN2C(=O)[C@H](CC(C)C)NC(=O)[C@H](Cc2ccc(O)cc2)NC(=O)[C@H](CCC(N)=O)NC(=O)[C@H](Cc2ccccc2)NC(=O)[C@H](CO)NC(=O)[C@H](C)NC(=O)[C@H](CCC(N)=O)NC1=O [Compound C241] | 60.1 %ID/g | 38.3 %ID/g | – | > 12 h | > 12 h |
| CC[C@H](C)[C@@H]1NC(=O)[C@H](Cc2ccc(O)cc2)NC(=O)[C@H](CCC(=O)O)NC(=O)[C@@H]2CSSC[C@@H](C(=O)N[C@@H](CO)C(=O)O)NC(=O)CNC(=O)[C@H](CC(C)C)NC(=O)[C@H](CC(N)=O)NC(=O)[C@H](CC(=O)O)NC(=O)[C@H](CC(C)C)NC(=O)[C@H]([C@@H](C)CC)NC(=O)[C@H](CCC(=O)O)NC(=O)[C@H](CCC(=O)O)NC(=O)[C@H]([C@@H](C)CC)NC(=O)[C@H](CSSC[C@H](NC(=O)CCOCCOCCOCCOCCNC(=O)CN3CCN(CC(=O)O)CCN(CC(=O)O)CCN(CC(=O)O)CC3)C(=O)N[C@@H](CC(=O)O)C(=O)N[C@@H](Cc3ccc(O)cc3)C(=O)N[C@@H](CC(=O)O)C(=O)N[C@@H](CCC(=O)O)C(=O)N[C@@H](CCC(N)=O)C(=O)N[C@@H](Cc3ccccc3)C(=O)N[C@@H](Cc3ccccc3)C(=O)N[C@@H]([C@@H](C)O)C(=O)N[C@@H](C)C(=O)N[C@@H](CC(C)C)C(=O)N[C@@H](C)C(=O)N[C@@H](CCCNC(=N)N)C(=O)N[C@@H](CC(C)C)C(=O)N[C@@H](CCCNC(=N)N)C(=O)NCC(=O)N[C@@H](C)C(=O)N[C@@H](CC(=O)O)C(=O)N[C@@H]([C@@H](C)CC)C(=O)N2)NC(=O)[C@H](CCC(=O)O)NC(=O)CNC(=O)[C@@H]2CCCN2C(=O)[C@H](CC(C)C)NC(=O)[C@H](Cc2ccc(O)cc2)NC(=O)[C@H](CCC(N)=O)NC(=O)[C@H](Cc2ccccc2)NC(=O)[C@H](CO)NC(=O)[C@H](C)NC(=O)[C@H](CCC(N)=O)NC1=O [Compound C245] | 61 %ID/g | 33.5 %ID/g | – | > 12 h | > 12 h |
| {DOTA-PEG4}-CEYDEQFFTALARLRGGDICEYIQARFQYLPGLCIEEILDNLGCS-OH (disulfide 1-34, 20-44 (inferred)) [Compound C265] | – | – | – | > 12 h | > 12 h |
| {DOTA-PEG4}-CEYDEQFFTALARLRGGDICEYIQA[Arg(Me2s)]FQYLPGLCIEEILDNLGCS-OH (disulfide 1-34, 20-44 (inferred)) [Compound C268] | – | – | – | > 12 h | > 12 h |
